Test results reported in patent US8802866B2, “Pyridinylimidazolone derivatives for the inhibition of PI3 kinases” (Merck Patent GmbH, priority 2009, dated 2014).

Assays:
[1] = system: PI3K-dependent phosphorylation of PKB at Serin 473 in PC3 cells; assay: Cellular PI3K assay (P-S473-PKB Luminex assay in PC3 cells); type: cell-based; settings: Homo sapiens, PC-3, 0.5 h; PC3 cells, 30 min, serum-free, P-S473-PKB; read-out: IC50 (cell)
Procedure: The cellular assay for determination of the P-S473-PKB level is carried out as a Luminex assay in 96-well format in PC3 cells.
PC3 cells are sown out with 20,000 cells per well in 100 μl medium (45% […]/45% Ham's F12/10% FCS) and incubated on the following day for 30 min with a serial dilution of the test substance (7 concentrations) under serum-free conditions. The cells are subsequently lysed using 90 μl of lysis buffer (20 mM Tris/HCl pH 8.0, 150 mM NaCl, 1% NP40, 10% glycerol, 1% phosphatase inhibitor I, 1% phosphatase inhibitor II, 0.1% protease inhibitor cocktail III, 0.01% benzonase) per well, and the lysates are separated off from insoluble cell constituents by means of centrifugation through a 96-well filter plate (0.65 μm). The lysates are incubated overnight at 4° C. with shaking with Luminex beads to which an anti-total PKB antibody is coupled. The detection is carried out on the following day by addition of a P-S473-PKB antibody and a species-specific PE-labelled secondary antibody. The detection of P-S473-PKB is carried out by measurement in a Luminex100 instrument by determination of 100 events per cavity in a measurement time of 60 sec.

[2] = molecular target: PI3Kbeta (Homo sapiens, UniProt P42338); assay: Biochemical PI3Kbeta assay (neomycin SPA, lipid phosphorylation); settings: human recombinant GST-PI3K
Procedure: (§1) The efficacy of the compounds according to the invention in the inhibition of PI3K-induced lipid phosphorylation can be investigated in the following binding assay. The assay combines scintillation proximity assay (SPA) technology (Amersham) with the ability of neomycin (a polycationic antibiotic) to bind phospholipids with high affinity and specificity. […] The coating of SPA beads with neomycin allows the detection of phosphorylated lipid substrates after incubation with recombinant PI3K and radioactive ATP in the same well by trapping the radioactive phospholipids by the SPA beads owing to their specific binding to neomycin. […] After incubation at room temperature for 120 minutes with gentle stirring, the reaction was stopped by addition of 200 μl of a solution comprising 250 μg of neomycin-coated PVT-SPA beads, ATP 60 mM and EDTA 6.2 mM in PBS. The assay is incubated at room temperature for a further 60 minutes with gentle stirring in order to enable binding of the phospholipids to the neomycin-SPA beads. After precipitation of the neomycin-coated PVT-SPA beads over 5 minutes at 1500×g, radioactive Ptdlns(3)P is quantified by scintillation counting in a Wallac Micro-Beta™ plate counter.

[3] = molecular target: DNA-PK protein complex (Homo sapiens, UniProt P78527); assay: Biochemical DNA-PK assay (FlashPlate)
Procedure: The kinase assay is carried out in […] microtitre FlashPlates®, coated with streptavidin. […] The reaction is stopped by addition of 50 μl/well of 200 mM EDTA. After incubation for 30 minutes, the liquids are removed at room temperature. Each well is washed three times with 100 μl of 0.9% NaCl solution. Non-specific reaction (blank) is determined using a proprietary kinase inhibitor (10 μM). The radioactivity is measured by means of a Topcount. […] Todd Eary, J. G. Schiro, H. Huang, L. E. Burgess, E. A. Kesicki, and J. Halbrook.

[4] = molecular target: recombinant PI3Kalpha (shortened form of the catalytic subunit) (Homo sapiens, UniProt P42336); assay: BIACORE PI3K binding assay (SPR); settings: 25° C.
Procedure: SPR measurements of the binding affinities and binding kinetics on PI3Kalpha surfaces with the aid of Biacore systems. The experiments are carried out on a Biacore S51 “Compound Characterization” or a Biacore T100 instrument utilising the default application “Kinetics/Affinity” Experimental conditions: recombinant PI3Kalpha (shortened form of the catalytic subunit, missing N terminal from about 100 to 150 aa, Mw about 110 kDa, prepared by Proteros Biostructures GmbH) is immobilised on Biacore CM5 chips (25° C., flow rate: 10 μl/min, utilising amine coupling at pH 7.40—Biacore Standard protocol). PI3Kalpha is employed in concentrations between 10 and 25 μg/ml. Depending on the duration of the injection time, immobilisation levels from 1700 to 11000 RU are achieved. The substances to be measured are added in the form of a titration series. The substance concentration is doubled for each subsequent injection. 10 different substance concentrations which cover a 500-fold dilution range are usually injected. […] Kinetic titration experiments are carried out at 25° C. with a flow rate of 30 μl/min, the sample contact time is 180 s, and the dissociation time is 240 s in a running buffer (20 mM HEPES pH7.40, 150 mM NaCl, 5 mM MgCl2, 1 mM DTT, 0.1 mM EDTA, 0.05% Tween 20) comprising 2% of DMSO. Buffer injections (as double references) identical to the sample injections are carried out in each case at the beginning of a continuous series. Solvent correction cycles (eight correction points, 1.4%-2.8% DMSO) are carried out at equal intervals. In order to condition the surface, at least five start-up cycles (buffer injections) are carried out. Data points are collected with a sample rate of 10 Hz. Surface regeneration is carried out after each measurement cycle, apart from after the solvent correction runs. For this purpose, two times 100 mM NaHCO3 pH 8.60 are injected for 30 sec. Data sets are processed and analysed using the Biacore S51 Evaluation software, version 1.2.1, or Biacore T100 Evaluation, version 2.0. Solvent-corrected and double-referenced association and dissociation phase data are adapted to a simple 1:1 interaction model with mass transport limitations.

[5] = molecular target: PI3Kalpha (Homo sapiens, UniProt P42336); assay: Biochemical PI3Kalpha assay (neomycin SPA, lipid phosphorylation); settings: human recombinant GST-PI3K
Procedure: as §1

PI3Kbeta, sequence (P42338 whole entry): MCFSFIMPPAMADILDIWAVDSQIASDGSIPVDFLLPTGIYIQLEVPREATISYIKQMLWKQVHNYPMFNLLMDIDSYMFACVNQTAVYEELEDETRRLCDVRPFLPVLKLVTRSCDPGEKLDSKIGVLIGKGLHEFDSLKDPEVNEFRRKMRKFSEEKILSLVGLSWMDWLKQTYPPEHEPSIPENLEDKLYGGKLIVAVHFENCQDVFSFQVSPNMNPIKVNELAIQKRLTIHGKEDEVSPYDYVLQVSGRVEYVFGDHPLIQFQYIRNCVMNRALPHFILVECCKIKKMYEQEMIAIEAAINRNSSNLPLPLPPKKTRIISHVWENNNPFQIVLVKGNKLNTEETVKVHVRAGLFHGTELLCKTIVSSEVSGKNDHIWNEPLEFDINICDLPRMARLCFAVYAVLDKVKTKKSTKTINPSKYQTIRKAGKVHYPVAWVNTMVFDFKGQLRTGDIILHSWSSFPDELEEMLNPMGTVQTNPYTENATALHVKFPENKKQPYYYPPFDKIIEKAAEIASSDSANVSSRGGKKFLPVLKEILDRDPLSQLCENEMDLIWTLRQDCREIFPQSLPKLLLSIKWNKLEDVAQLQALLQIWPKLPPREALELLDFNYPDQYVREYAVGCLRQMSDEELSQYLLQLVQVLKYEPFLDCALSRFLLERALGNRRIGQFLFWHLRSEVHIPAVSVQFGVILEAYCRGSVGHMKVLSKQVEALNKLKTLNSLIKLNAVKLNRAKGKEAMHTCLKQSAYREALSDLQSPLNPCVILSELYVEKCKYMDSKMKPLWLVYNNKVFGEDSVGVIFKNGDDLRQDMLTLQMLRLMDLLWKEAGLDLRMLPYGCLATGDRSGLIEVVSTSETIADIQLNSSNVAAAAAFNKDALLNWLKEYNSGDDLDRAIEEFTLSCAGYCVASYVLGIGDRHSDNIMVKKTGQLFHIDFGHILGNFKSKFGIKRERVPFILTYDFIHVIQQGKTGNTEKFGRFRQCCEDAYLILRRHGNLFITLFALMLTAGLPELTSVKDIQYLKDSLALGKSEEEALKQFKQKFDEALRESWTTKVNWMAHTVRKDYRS
PI3Kbeta, sequence (P27986 whole entry partner): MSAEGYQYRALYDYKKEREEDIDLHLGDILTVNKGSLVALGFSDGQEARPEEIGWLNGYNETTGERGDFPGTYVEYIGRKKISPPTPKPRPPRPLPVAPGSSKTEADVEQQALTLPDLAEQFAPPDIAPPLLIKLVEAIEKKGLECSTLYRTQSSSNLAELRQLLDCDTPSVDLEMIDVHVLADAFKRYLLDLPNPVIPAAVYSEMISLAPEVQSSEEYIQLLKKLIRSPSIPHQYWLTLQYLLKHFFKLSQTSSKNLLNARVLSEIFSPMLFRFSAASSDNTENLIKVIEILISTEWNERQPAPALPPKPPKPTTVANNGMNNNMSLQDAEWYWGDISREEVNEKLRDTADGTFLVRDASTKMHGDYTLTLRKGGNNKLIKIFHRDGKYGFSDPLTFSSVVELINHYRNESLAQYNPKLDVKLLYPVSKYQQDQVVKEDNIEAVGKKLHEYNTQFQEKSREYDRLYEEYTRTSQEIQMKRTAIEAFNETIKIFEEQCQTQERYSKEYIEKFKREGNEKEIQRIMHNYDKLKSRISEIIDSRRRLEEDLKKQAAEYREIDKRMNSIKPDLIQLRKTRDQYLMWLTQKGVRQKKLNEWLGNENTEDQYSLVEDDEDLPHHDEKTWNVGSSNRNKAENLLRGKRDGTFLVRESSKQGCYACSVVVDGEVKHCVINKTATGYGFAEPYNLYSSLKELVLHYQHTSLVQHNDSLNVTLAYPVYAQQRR
PI3Kalpha, sequence (P42336 whole entry): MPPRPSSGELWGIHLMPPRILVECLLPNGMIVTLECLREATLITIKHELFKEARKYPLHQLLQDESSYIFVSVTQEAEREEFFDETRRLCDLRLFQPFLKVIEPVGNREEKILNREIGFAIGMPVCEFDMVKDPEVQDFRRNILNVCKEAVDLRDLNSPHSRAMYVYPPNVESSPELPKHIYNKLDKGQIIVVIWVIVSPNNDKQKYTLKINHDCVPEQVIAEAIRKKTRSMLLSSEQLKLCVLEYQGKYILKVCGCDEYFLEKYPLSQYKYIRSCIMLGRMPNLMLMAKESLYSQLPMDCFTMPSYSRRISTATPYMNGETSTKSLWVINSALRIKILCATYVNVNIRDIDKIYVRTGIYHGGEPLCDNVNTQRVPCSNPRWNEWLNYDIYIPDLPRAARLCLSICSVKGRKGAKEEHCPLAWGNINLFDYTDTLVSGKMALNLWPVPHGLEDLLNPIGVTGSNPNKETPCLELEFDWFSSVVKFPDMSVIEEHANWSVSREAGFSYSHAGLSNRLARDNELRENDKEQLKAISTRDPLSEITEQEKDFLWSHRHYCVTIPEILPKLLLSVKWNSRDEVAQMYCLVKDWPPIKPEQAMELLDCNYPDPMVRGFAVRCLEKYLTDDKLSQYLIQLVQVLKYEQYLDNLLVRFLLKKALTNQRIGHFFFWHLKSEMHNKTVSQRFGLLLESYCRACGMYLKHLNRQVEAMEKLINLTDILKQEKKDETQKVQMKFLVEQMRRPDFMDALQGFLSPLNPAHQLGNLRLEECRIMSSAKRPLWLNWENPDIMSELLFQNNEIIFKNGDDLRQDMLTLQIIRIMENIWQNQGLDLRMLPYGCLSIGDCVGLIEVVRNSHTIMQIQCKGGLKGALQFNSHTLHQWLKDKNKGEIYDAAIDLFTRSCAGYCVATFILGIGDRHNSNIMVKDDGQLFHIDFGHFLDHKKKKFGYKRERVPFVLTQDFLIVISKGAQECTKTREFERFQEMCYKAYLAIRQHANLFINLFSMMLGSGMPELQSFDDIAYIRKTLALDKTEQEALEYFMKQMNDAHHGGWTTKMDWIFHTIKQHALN
PI3Kalpha, sequence (P27986 whole entry partner): as the sequence (P27986 whole entry partner) above
recombinant PI3Kalpha (shortened form of the catalytic subunit), sequence (P42336 151-1068 limits assumed): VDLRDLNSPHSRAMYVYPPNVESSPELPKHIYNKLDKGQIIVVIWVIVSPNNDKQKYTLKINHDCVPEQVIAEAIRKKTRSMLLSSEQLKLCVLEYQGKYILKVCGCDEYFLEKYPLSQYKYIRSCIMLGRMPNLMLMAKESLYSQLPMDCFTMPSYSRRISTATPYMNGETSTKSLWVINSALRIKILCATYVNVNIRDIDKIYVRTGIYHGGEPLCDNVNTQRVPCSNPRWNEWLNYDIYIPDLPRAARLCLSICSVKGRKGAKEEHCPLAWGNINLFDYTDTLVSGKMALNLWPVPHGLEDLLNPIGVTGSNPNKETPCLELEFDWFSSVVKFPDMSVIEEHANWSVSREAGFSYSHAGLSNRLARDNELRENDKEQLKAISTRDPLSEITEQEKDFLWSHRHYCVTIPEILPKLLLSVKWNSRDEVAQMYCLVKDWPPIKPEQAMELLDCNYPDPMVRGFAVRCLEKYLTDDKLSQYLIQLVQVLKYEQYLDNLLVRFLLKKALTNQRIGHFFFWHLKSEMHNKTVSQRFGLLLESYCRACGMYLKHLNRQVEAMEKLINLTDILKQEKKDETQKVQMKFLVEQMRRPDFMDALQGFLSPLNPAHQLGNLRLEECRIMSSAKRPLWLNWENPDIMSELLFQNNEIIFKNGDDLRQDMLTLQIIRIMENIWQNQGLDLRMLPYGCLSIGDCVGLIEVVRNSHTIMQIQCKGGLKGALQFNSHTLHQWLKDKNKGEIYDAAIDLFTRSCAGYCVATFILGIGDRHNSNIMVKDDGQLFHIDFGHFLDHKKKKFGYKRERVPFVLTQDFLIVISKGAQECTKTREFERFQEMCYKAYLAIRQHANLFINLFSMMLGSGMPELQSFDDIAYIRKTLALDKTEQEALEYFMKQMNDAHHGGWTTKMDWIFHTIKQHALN

| Compound | IC50 [1] [µM] | IC50 [2] [µM] | IC50 [3] [µM] | Kd [4] [µM] | IC50 [5] [µM] |
| --- | --- | --- | --- | --- | --- |
| Cn1cc(-c2cc(-c3cnc4ccccc4c3)ccn2)n(-c2ccc(N3CCNCC3)c(C(F)(F)F)c2)c1=O [Example A19, 1-Methyl-3-(4-piperazin-1-yl-3-trifluoromethylphenyl)-4-(4-quinolin-3-ylpyridin-2-yl)-1,3-dihydroimidazol-2-one] | 0.1 to 10 | 0.1 to 10 | 0.1 to 10 | 0.1 to 10 | 0.1 to 10 |
| CC(C)(C#N)c1ccc(-n2c(-c3cc(-c4cnc5[nH]ccc5c4)ccn3)c[nH]c2=O)cc1 [Example A28, 2-Methyl-2-(4-{2-oxo-5-[4-(1H-pyrrolo[2,3-b]pyridin-5-yl)pyridin-2-yl]-2,3-dihydroimidazol-1-yl}phenyl)propionitrile] | 0.1 to 10 | 0.1 to 10 | 0.0001 to 0.1 | 0.0001 to 0.1 | 0.0001 to 0.1 |
| COC(=O)c1c[nH]c2ncc(-c3ccnc(-c4cn(C)c(=O)n4-c4ccc(C(C)(C)C#N)cc4)c3)cc12 [Example A29, Methyl 5-(2-{3-[4-(cyanodimethylmethyl)phenyl]-1-methyl-2-oxo-2,3-dihydro-1H-imidazol-4-yl}pyridin-4-yl)-1H-pyrrolo[2,3-b]pyridine-3-carboxylate] | 0.1 to 10 | 0.1 to 10 | 0.0001 to 0.1 | 0.0001 to 0.1 | 0.0001 to 0.1 |
| Cn1cc(-c2cc(-c3cnc4[nH]ccc4c3)ccn2)n(-c2ccc(C(C)(C)C(=O)O)cc2)c1=O [Example A33, 2-Methyl-2-(4-{3-methyl-2-oxo-5-[4-(1H-pyrrolo[2,3-b]pyridin-5-yl)pyridin-2-yl]-2,3-dihydroimidazol-1-yl}phenyl)propionic acid] | > 10 | 0.1 to 10 | 0.0001 to 0.1 | 0.0001 to 0.1 | 0.1 to 10 |
| Cn1cc(-c2cc(-c3cnc(N)c(C#N)c3)ccn2)n(-c2ccc(C(C)(C)C#N)cc2)c1=O [Example A37, 6-Amino-2′-{3-[4-(cyanodimethylmethyl)phenyl]-1-methyl-2-oxo-2,3-dihydro-1H-imidazol-4-yl}-[3,4′]bipyridinyl-5-carbonitrile] | 0.1 to 10 | 0.1 to 10 | 0.0001 to 0.1 | 0.0001 to 0.1 | 0.1 to 10 |
| Cn1cc(-c2cc(-c3cnc4[nH]cnc4c3)ccn2)n(-c2ccc(C(C)(C)C#N)cc2)c1=O [Example A38, 2-(4-{5-[4-(3H-Imidazo[4,5-b]pyridin-6-yl)pyridin-2-yl]-3-methyl-2-oxo-2,3-dihydroimidazol-1-yl}phenyl)-2-methylpropionitrile] | 0.1 to 10 | 0.1 to 10 | 0.1 to 10 | 0.0001 to 0.1 | 0.0001 to 0.1 |
| Cn1cc(-c2cc(-c3cnc4[nH]ccc4c3)ccn2)n(-c2ccc(C#N)cc2)c1=O [Example A48, 4-{3-Methyl-2-oxo-5-[4-(1H-pyrrolo[2,3-b]pyridin-5-yl)pyridin-2-yl]-2,3-dihydro-imidazol-1-yl}benzonitrile] | 0.1 to 10 | 0.1 to 10 | 0.0001 to 0.1 | 0.1 to 10 | 0.1 to 10 |
| Cn1cc(-c2cc(-c3cnc(N)c(C(F)(F)F)c3)ccn2)n(-c2ccc(N3CCNCC3)c(C(F)(F)F)c2)c1=O [Example A56, 4-(6-Amino-5-trifluoromethyl-[3,4′]bipyridinyl-2′-yl)-1-methyl-3-(4-piperazin-1-yl-3-trifluoromethylphenyl)-1,3-dihydroimidazol-2-one] | 0.1 to 10 | 0.1 to 10 | 0.1 to 10 | 0.0001 to 0.1 | 0.1 to 10 |
| Cn1cc(-c2cc(-c3ccc4[nH]ccc4c3)ccn2)n(-c2ccc(N3CCNCC3)c(C(F)(F)F)c2)c1=O [Example A57, 4-[4-(1H-Indol-5-yl)pyridin-2-yl]-1-methyl-3-(4-piperazin-1-yl-3-trifluoromethyl-phenyl)-1,3-dihydroimidazol-2-one] | 0.1 to 10 | 0.1 to 10 | 0.1 to 10 | 0.1 to 10 | 0.1 to 10 |
| Cn1cc(-c2cc(-c3ccc(N)nc3)ccn2)n(-c2ccc(N3CCNCC3)c(C(F)(F)F)c2)c1=O [Example A59, 4-(6-Amino-[3,4′]bipyridinyl-2′-yl)-1-methyl-3-(4-piperazin-1-yl-3-trifluoromethyl-phenyl)-1,3-dihydroimidazol-2-one] | 0.1 to 10 | 0.1 to 10 | 0.0001 to 0.1 | 0.0001 to 0.1 | 0.1 to 10 |
| Cn1cc(-c2cc(-c3ccc(NS(C)(=O)=O)cc3)ccn2)n(-c2ccc(N3CCNCC3)c(C(F)(F)F)c2)c1=O [Example A62, N-(4-{2-[1-Methyl-2-oxo-3-(4-piperazin-1-yl-3-trifluoromethylphenyl)-2,3-dihydro-1H-imidazol-4-yl]pyridin-4-yl}phenyl)methanesulfonamide] | > 10 | > 10 | 0.0001 to 0.1 | > 10 | > 10 |
| Cn1cc(-c2cc(-c3cnc(N)c(C(F)(F)F)c3)ccn2)n(-c2cccc(C#N)c2)c1=O [Example A64, 3-[5-(6-Amino-5-trifluoromethyl-[3,4′]bipyridinyl-2′-yl)-3-methyl-2-oxo-2,3-dihydroimidazol-1-yl]benzonitrile] | 0.1 to 10 | 0.1 to 10 | 0.0001 to 0.1 | 0.0001 to 0.1 | 0.1 to 10 |
| Cn1cc(-c2cc(-c3cnc(N)c(C#N)c3)ccn2)n(-c2ccc(N3CCNCC3)c(C(F)(F)F)c2)c1=O [Example A65, 6-Amino-2′-[1-methyl-2-oxo-3-(4-piperazin-1-yl-3-trifluoromethylphenyl)-2,3-dihydro-1H-imidazol-4-yl]-[3,4′]bipyridinyl-5-carbonitrile] | 0.1 to 10 | 0.1 to 10 | 0.0001 to 0.1 | 0.0001 to 0.1 | 0.1 to 10 |
| CCc1cccc(-n2c(-c3cc(-c4cnc5[nH]ccc5c4)ccn3)cn(C)c2=O)c1 [Example A66, 3-(3-Ethylphenyl)-1-methyl-4-[4-(1H-pyrrolo[2,3-b]pyridin-5-yl)pyridin-2-yl]-1,3-dihydroimidazol-2-one] | > 10 | > 10 | > 10 | > 10 | > 10 |
| Cn1cc(-c2cc(-c3cnc4[nH]ccc4c3)ccn2)n(-c2ccccc2C(F)(F)F)c1=O [Example A67, 1-Methyl-4-[4-(1H-pyrrolo[2,3-b]pyridin-5-yl)pyridin-2-yl]-3-(2-trifluoromethylphenyl)-1,3-dihydroimidazol-2-one] | 0.1 to 10 | 0.1 to 10 | 0.0001 to 0.1 | 0.1 to 10 | 0.1 to 10 |
